# Data: ChEMBL document CHEMBL3132766, “Flavans from Desmos cochinchinensis as potent aromatase inhibitors” (Medchemcomm, 2013)
# What was measured:
# [1] = target: T1, Aromatase (Homo sapiens, UniProt P11511); assay: Inhibition of aromatase (unknown origin)
# T1 sequence (P11511 whole entry): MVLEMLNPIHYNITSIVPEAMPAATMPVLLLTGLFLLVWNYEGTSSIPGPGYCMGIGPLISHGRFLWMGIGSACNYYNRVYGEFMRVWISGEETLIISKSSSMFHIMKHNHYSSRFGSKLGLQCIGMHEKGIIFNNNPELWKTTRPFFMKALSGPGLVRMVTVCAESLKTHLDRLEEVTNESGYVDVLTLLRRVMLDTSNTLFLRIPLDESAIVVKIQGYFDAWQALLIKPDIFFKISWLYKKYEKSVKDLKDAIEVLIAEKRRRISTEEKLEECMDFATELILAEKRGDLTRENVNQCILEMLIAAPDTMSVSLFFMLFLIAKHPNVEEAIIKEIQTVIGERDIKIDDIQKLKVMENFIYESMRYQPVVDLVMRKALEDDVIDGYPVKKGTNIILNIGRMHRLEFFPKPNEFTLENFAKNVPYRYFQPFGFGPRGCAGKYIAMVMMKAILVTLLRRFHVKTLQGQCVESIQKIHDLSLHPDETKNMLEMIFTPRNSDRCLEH
# [2] = Cytotoxicity against human HuCCa1 cells by MTT assay; assay type: functional, cell-based, HuCC-A1
# [3] = tested on: A549; assay: Cytotoxicity against human A549 cells by MTT assay; assay type: functional, cell-based
# [4] = tested on: HepG2; assay: Cytotoxicity against human HepG2 cells by MTT assay; assay type: functional, cell-based
# [5] = Cytotoxicity against human MOLT3 cells by XTT assay; assay type: functional, cell-based; details: MOLT-3
# [6] = target: T1, Aromatase; assay: Inhibition of human recombinant aromatase expressed in baculovirus infected insect cells using O-benzylfluorescein benzyl ester as substrate after 30 mins
# [7] = Homo sapiens, HuCC-A1, read-out: IC50
# [8] = Homo sapiens, A549, read-out: IC50
# [9] = Homo sapiens, HepG2, read-out: IC50
IC50 [1],IC50 [6],SMILES,"IC50 [2, 7]","IC50 [3, 8]",IC50 ([4]; hepg2),IC50 [5],IC50 ([2]; hucc-a1),"IC50 [4, 9]",IC50 ([3]; a549)
3300 nM,,COc1cc(O)c([C@@H]2C[C@@H](c3ccccc3)Oc3c(C=O)c(O)cc(O)c32)c(O)c1C(=O)/C=C/c1ccccc1,,,,,,,
1800 nM,,COc1cc(O)c([C@H]2C[C@@H](c3ccccc3)Oc3c(C=O)c(O)cc(O)c32)c(O)c1C(=O)/C=C/c1ccccc1,,,,,,,
,40 nM,COc1cc(O)c(C=O)c2c1[C@H](O)C[C@@H](c1ccccc1)O2,130 µM,147 µM,Not Active,24.3 µM,,,
,1010 nM,COc1c(C)c(OC)c2c(c1C=O)O[C@H](c1ccccc1)C[C@H]2O,,137 µM,,57.4 µM,Not Active,99.6 µM,
,10700 nM,COc1c(C)c(OC)c2c(c1C)O[C@H](c1ccccc1)C[C@H]2O,,,,63.5 µM,Not Active,135 µM,Not Active
,90 nM,COc1cc(O)c(C=O)c2c1[C@H](OC)C[C@@H](c1ccccc1)O2,140 µM,,Not Active,41.3 µM,,,Not Active
,80 nM,COc1c(C)c(O)c(C=O)c2c1[C@H](O)C[C@@H](c1ccccc1)O2,143 µM,,,29.8 µM,,143 µM,Not Active
,150 nM,COc1c(C)c(O)c(C=O)c2c1[C@H](OC)C[C@@H](c1ccccc1)O2,125 µM,104 µM,,28.5 µM,,145 µM,
,600 nM,COc1cc(O)c2c(c1C)O[C@H](c1ccccc1)CC2=O,,,,,,,
,> 12500 nM,COc1c(C)c(O)c2c(c1C)O[C@H](c1ccccc1)CC2=O,,,Not Active,72 µM,Not Active,,Not Active
,,COc1cccc2c1C(=O)c1c(O)c3c(c(O)c1C2=O)C[C@@](O)(C(=O)CO)C[C@@H]3O[C@H]1C[C@H](N)[C@H](O)[C@H](C)O1 [DOXORUBICIN],1.1 µM,,,,,,
,,COc1cc([C@@H]2c3cc4c(cc3[C@@H](O[C@@H]3O[C@@H]5CO[C@@H](C)O[C@H]5[C@H](O)[C@H]3O)[C@H]3COC(=O)[C@H]23)OCO4)cc(OC)c1O [ETOPOSIDE],,,,0.03 µM,,22.1 µM,
900 nM,,O=C1C[C@@H](c2ccccc2)Oc2cc(O)cc(O)c21 [PINOCEMBRIN],,,,,,,
